Experimental data from patent US9556165B2 (priority 2012, dated 2017).
Values after ≈ are worked out from the molar mass of the structure shown.

Tests used:
Experiment in all cases: MIC determination, broth microdilution (CLSI)
Format in all cases: cell-based
strain 20 = tested on: strain 20
[1] = tested on: P. aeruginosa 2297 (AmpC wt); settings: for MIC: Pseudomonas aeruginosa, strain 7
M. catarrhalis ICB489 = settings: for MIC: Moraxella catarrhalis, ICB489, strain 12
strain 21 = tested on: strain 21
strain 19 = tested on: strain 19
M. morganii 126/3048 = settings: for MIC: Morganella morganii, 126/3048, strain 5
C. freundii K21/3034 = settings: for MIC: Citrobacter freundii, K21/3034, strain 4
E. coli J62-TEM-3 = settings: for MIC: Escherichia coli, J62TEM3, read-out: strain 18 MIC, strain 18
E. coli J62 = settings: for MIC: Escherichia coli, J62, strain 17, read-out: strain 17 MIC
A. baumannii ATCC15308 = settings: for MIC: Acinetobacter baumannii, ATCC15308, strain 9
[2] = tested on: P. aeruginosa 2297-con (AmpC derepressed); settings: for MIC: Pseudomonas aeruginosa, read-out: strain 8 MIC, strain 8
K. pneumoniae 60 = settings: for MIC: Klebsiella pneumoniae, 60, strain 2
P. aeruginosa PAO1 = settings: for MIC: Pseudomonas aeruginosa, PAO1, strain 6
E. cloacae 34654 = settings: for MIC: Enterobacter cloacae, 34654, strain 3
E. coli ATCC25922 = settings: for MIC: Escherichia coli, ATCC25922, strain 1
S. maltophilia ICB7569 = settings: Stenotrophomonas maltophilia, ICB7569, strain 10
S. pneumoniae 113 = settings: Streptococcus pneumoniae, 113, strain 14; read-out: strain 14 MIC
H. influenzae ATCC 49247 = settings: Haemophilus influenzae, ATCC49247, strain 13; read-out: strain 13 MIC
B. fragilis 6688 = settings: Bacteroides fragilis, 6688, strain 15; read-out: strain 15 MIC
S. aureus 133 = settings: Staphylococcus aureus, 133, strain 11; read-out: strain 11 MIC

Compound	MIC (strain 20) [µg/mL]	MIC [1] [µg/mL]	MIC (S. maltophilia ICB7569) [µg/mL]	MIC (strain 21) [µg/mL]	MIC (strain 19) [µg/mL]	MIC (M. morganii 126/3048) [µg/mL]	MIC (S. pneumoniae 113) [µg/mL]	MIC (C. freundii K21/3034) [µg/mL]	MIC (E. coli J62-TEM-3) [µg/mL]	MIC (E. coli J62) [µg/mL]	MIC (A. baumannii ATCC15308) [µg/mL]	MIC [2] [µg/mL]	MIC (K. pneumoniae 60) [µg/mL]	MIC (P. aeruginosa PAO1) [µg/mL]	MIC (E. cloacae 34654) [µg/mL]	MIC (E. coli ATCC25922) [µg/mL]	MIC (M. catarrhalis ICB489) [µg/mL]	MIC (H. influenzae ATCC 49247) [µg/mL]	MIC (B. fragilis 6688) [µg/mL]	MIC (S. aureus 133) [µg/mL]	other results
C[C@H]1[C@H](NC(=O)/C(=N\OC(COc2ccc(C(=N)N)cc2)C(=O)O)c2csc(N)n2)C(=O)N1S(=O)(=O)O (mixture of isomers) [Example 26B, (2S and 2R)-2-({[(1Z)-1-(2-Amino-1,3-thiazol-4-yl)-2-{[(2S,3S)-2-methyl-4-oxo-1-sulfoazetidin-3-yl]amino}-2-oxoethylidene]amino}oxy)-3-(4-carbamidinoyl-phenoxy)propanoic acid]	–	–	–	–	–	–	–	–	–	–	–	–	–	–	–	–	–	–	–	–	strain 20 MIC (strain 20): 2 µg/mL; strain 7 MIC [1]: 8 µg/mL; strain 12 MIC (M. catarrhalis ICB489; strain 12): 2 µg/mL; strain 21 MIC (strain 21): 2 µg/mL; strain 19 MIC (strain 19): 1 µg/mL; strain 5 MIC (M. morganii 126/3048; strain 5): 0.5 µg/mL; strain 4 MIC (C. freundii K21/3034; strain 4): 2 µg/mL; strain 18 MIC (E. coli J62-TEM-3; strain 18): 32 µg/mL; strain 17 MIC (E. coli J62; strain 17): 2 µg/mL; strain 9 MIC (A. baumannii ATCC15308; strain 9): 16 µg/mL; strain 8 MIC ([2]; strain 8): 32 µg/mL; strain 2 MIC (K. pneumoniae 60; strain 2): 0.5 µg/mL; strain 6 MIC (P. aeruginosa PAO1; strain 6): 4 µg/mL; strain 3 MIC (E. cloacae 34654; strain 3): 1 µg/mL; strain 1 MIC (E. coli ATCC25922; strain 1): 2 µg/mL
CC1(C)[C@H](NC(=O)/C(=N\OCCOc2ccc(C(=N)N)c(O)c2)c2csc(N)n2)C(=O)N1OS(=O)(=O)O [Example 1, (2Z)-2-(2-Amino-1,3-thiazol-4-yl)-2-{[2-(4-carbamimidoyl-3-hydroxyphenoxy)ethoxy]imino}-N-[(3S)-2,2-dimethyl-4-oxo-1-(sulfooxy)azetidin-3-yl]ethanamide]	0.25 (≈ 0.448 µM)	8 (≈ 14.3 µM)	8 (≈ 14.3 µM)	0.25 (≈ 0.448 µM)	0.25 (≈ 0.448 µM)	0.125 (≈ 0.224 µM)	16 (≈ 28.7 µM)	0.5 (≈ 0.897 µM)	16 (≈ 28.7 µM)	0.25 (≈ 0.448 µM)	8 (≈ 14.3 µM)	4 (≈ 7.17 µM)	0.25 (≈ 0.448 µM)	4 (≈ 7.17 µM)	0.5 (≈ 0.897 µM)	0.25 (≈ 0.448 µM)	–	–	–	–	–
C[C@H]1[C@H](NC(=O)/C(=N\OCCSc2ccc(C(=N)N)cc2)c2csc(N)n2)C(=O)N1S(=O)(=O)O [Example 6, (2S,3S)-3-{[(2Z)-2-(2-Amino-1,3-thiazol-4-yl)-2-({2-[(4-carbamimidoylphenyl)sulfanyl]ethoxy}imino)acetyl]amino}-2-methyl-4-oxoazetidine-1-sulfonic acid]	0.25 (≈ 0.474 µM)	8 (≈ 15.2 µM)	32 (≈ 60.7 µM)	0.25 (≈ 0.474 µM)	0.25 (≈ 0.474 µM)	≤ 0.125	4 (≈ 7.58 µM)	≤ 0.125	16 (≈ 30.3 µM)	0.25 (≈ 0.474 µM)	1 (≈ 1.9 µM)	16 (≈ 30.3 µM)	0.25 (≈ 0.474 µM)	4 (≈ 7.58 µM)	0.125 (≈ 0.237 µM)	0.125 (≈ 0.237 µM)	–	–	–	–	–
C[C@H]1[C@H](NC(=O)/C(=N\OCCOc2ccc(C(=N)N)cc2F)c2csc(N)n2)C(=O)N1S(=O)(=O)O [Example 19, (2S,3S)-3-{[(2Z)-2-(2-Amino-1,3-thiazol-4-yl)-2-{[2-(4-carbamimidoyl-2-fluorophenoxy)ethoxy]imino}acetyl]amino}-2-methyl-4-oxoazetidine-1-sulfonic acid]	1 (≈ 1.89 µM)	16 (≈ 30.2 µM)	–	1 (≈ 1.89 µM)	0.5 (≈ 0.944 µM)	0.25 (≈ 0.472 µM)	16 (≈ 30.2 µM)	0.5 (≈ 0.944 µM)	32 (≈ 60.4 µM)	0.5 (≈ 0.944 µM)	4 (≈ 7.55 µM)	–	0.125 (≈ 0.236 µM)	8 (≈ 15.1 µM)	0.5 (≈ 0.944 µM)	0.5 (≈ 0.944 µM)	–	–	–	–	–
C[C@H]1[C@H](NC(=O)/C(=N\OCCOc2ccc(C(=N)NO)cc2)c2csc(N)n2)C(=O)N1S(=O)(=O)O [Example 21, (2S,3S)-3-{[(2Z)-2-(2-Amino-1,3-thiazol-4-yl)-2-({2-[4-(N-hydroxycarbamimidoyl)phenoxy]ethoxy}imino)acetyl]amino}-2-methyl-4-oxoazetidine-1-sulfonic acid]	1 (≈ 1.9 µM)	16 (≈ 30.3 µM)	–	1 (≈ 1.9 µM)	0.5 (≈ 0.948 µM)	0.5 (≈ 0.948 µM)	32 (≈ 60.7 µM)	0.25 (≈ 0.474 µM)	16 (≈ 30.3 µM)	2 (≈ 3.79 µM)	8 (≈ 15.2 µM)	–	0.25 (≈ 0.474 µM)	16 (≈ 30.3 µM)	1 (≈ 1.9 µM)	1 (≈ 1.9 µM)	0.25 (≈ 0.474 µM)	1 (≈ 1.9 µM)	32 (≈ 60.7 µM)	0.5 (≈ 0.948 µM)	–
CC1(C)[C@H](NC(=O)/C(=N\OCCOc2ccc(C(=N)N)nn2)c2csc(N)n2)C(=O)N1OS(=O)(=O)O [Example 29, (2Z)-2-(2-Amino-1,3-thiazol-4-yl)-2-({2-[(6-carbamimidoylpyridazin-3-yl)oxy]-ethoxy}imino)-N-[(3S)-2,2-dimethyl-4-oxo-1-(sulfooxy)azetidin-3-yl]ethanamide]	0.5 (≈ 0.92 µM)	16 (≈ 29.4 µM)	8 (≈ 14.7 µM)	0.5 (≈ 0.92 µM)	0.5 (≈ 0.92 µM)	0.25 (≈ 0.46 µM)	4 (≈ 7.36 µM)	0.25 (≈ 0.46 µM)	8 (≈ 14.7 µM)	0.5 (≈ 0.92 µM)	2 (≈ 3.68 µM)	8 (≈ 14.7 µM)	0.25 (≈ 0.46 µM)	8 (≈ 14.7 µM)	0.5 (≈ 0.92 µM)	0.25 (≈ 0.46 µM)	–	–	–	–	–
C[C@H]1[C@H](NC(=O)/C(=N\OCc2cc(C(=N)N)cs2)c2csc(N)n2)C(=O)N1S(=O)(=O)O [Example 32, (2S,3S)-3-{[(2Z)-2-(2-Amino-1,3-thiazol-4-yl)-2-(2-[(4-carbamimidoylthiophen-2-yl)methoxy]imino)acetyl]amino}-2-methyl-4-oxoazetidine-1-sulfonic acid]	2 (≈ 4.1 µM)	32 (≈ 65.6 µM)	–	1 (≈ 2.05 µM)	1 (≈ 2.05 µM)	0.5 (≈ 1.03 µM)	8 (≈ 16.4 µM)	0.5 (≈ 1.03 µM)	32 (≈ 65.6 µM)	2 (≈ 4.1 µM)	2 (≈ 4.1 µM)	–	–	16 (≈ 32.8 µM)	0.5 (≈ 1.03 µM)	1 (≈ 2.05 µM)	0.75 (≈ 1.54 µM)	0.5 (≈ 1.03 µM)	3 (≈ 6.15 µM)	≤ 0.063	–
C[C@H]1[C@H](NC(=O)/C(=N\OCCCOc2ccc(C(=N)N)cc2)c2csc(N)n2)C(=O)N1S(=O)(=O)O [Example 37, (2S,3S)-3-{[(2Z)-2-(2-Amino-1,3-thiazol-4-yl)-2-[{3-(4-carbamimidoylphenoxy)propoxy]imino}acetyl]amino}-2-methyl-4-oxoazetidine-1-sulfonic acid]	2 (≈ 3.81 µM)	8 (≈ 15.2 µM)	–	2 (≈ 3.81 µM)	2 (≈ 3.81 µM)	1 (≈ 1.9 µM)	4 (≈ 7.61 µM)	2 (≈ 3.81 µM)	–	4 (≈ 7.61 µM)	4 (≈ 7.61 µM)	–	2 (≈ 3.81 µM)	8 (≈ 15.2 µM)	2 (≈ 3.81 µM)	2 (≈ 3.81 µM)	0.5 (≈ 0.951 µM)	1 (≈ 1.9 µM)	16 (≈ 30.4 µM)	1 (≈ 1.9 µM)	–
